Literature values as cited in patent US6703390B2, “Sulfur containing dihydrophthalazine antagonists of excitatory amino acid receptors” (Transgenomic, Inc., priority 2000, dated 2004).
Read-outs that look alike come from different tables or passages of the source.

Assays:
[1] = tested on: middle cerebral artery occlusion (MCAO) model of ischemia
[2] = tested on: common carotid arteries model of global ischemia; conditions: compared with the competitive antagonist NBQX

Compound: CC1=NN=C(c2ccc(N)cc2)c2cc3c(cc2C1)OCO3 [GYKI 52466]
- reduced cortical infarct volumes ([1]; given continuously for 2 hours just after occlusion): 68%
- reduced cortical infarct volumes ([1]; given delayed for one hour after occlusion): 48%
- efficacy in MCAO model of ischemia ([1]; given either continuously for 2 hours just after occlusion or delayed for one hour): effective
- efficacy in global ischemia model [2]: as effective as the glutamate site competitive antagonist NBQX
